Measurements reported in publication PMC8060913, “The Calcium-Activated Chloride Channel TMEM16A is Inhibitied by Liquiritigenin” (Frontiers in Pharmacology, 2021).
pIC50: −log10 of the molar value. Where two headings read alike, the source gives them in different places.

Experiments:
Type in all cases: cell-based
[1] = target: T1, mouse TMEM16A (mTMEM16A, anoctamin 1) (Mus musculus, UniProt Q8BHY3); assay: whole-cell patch-clamp in transfected HEK293T cells, % inhibition at […], +[…] mV; conditions: HEK-293T
T1 construct: gene Ano1
T1 sequence (Q8BHY3 1-960): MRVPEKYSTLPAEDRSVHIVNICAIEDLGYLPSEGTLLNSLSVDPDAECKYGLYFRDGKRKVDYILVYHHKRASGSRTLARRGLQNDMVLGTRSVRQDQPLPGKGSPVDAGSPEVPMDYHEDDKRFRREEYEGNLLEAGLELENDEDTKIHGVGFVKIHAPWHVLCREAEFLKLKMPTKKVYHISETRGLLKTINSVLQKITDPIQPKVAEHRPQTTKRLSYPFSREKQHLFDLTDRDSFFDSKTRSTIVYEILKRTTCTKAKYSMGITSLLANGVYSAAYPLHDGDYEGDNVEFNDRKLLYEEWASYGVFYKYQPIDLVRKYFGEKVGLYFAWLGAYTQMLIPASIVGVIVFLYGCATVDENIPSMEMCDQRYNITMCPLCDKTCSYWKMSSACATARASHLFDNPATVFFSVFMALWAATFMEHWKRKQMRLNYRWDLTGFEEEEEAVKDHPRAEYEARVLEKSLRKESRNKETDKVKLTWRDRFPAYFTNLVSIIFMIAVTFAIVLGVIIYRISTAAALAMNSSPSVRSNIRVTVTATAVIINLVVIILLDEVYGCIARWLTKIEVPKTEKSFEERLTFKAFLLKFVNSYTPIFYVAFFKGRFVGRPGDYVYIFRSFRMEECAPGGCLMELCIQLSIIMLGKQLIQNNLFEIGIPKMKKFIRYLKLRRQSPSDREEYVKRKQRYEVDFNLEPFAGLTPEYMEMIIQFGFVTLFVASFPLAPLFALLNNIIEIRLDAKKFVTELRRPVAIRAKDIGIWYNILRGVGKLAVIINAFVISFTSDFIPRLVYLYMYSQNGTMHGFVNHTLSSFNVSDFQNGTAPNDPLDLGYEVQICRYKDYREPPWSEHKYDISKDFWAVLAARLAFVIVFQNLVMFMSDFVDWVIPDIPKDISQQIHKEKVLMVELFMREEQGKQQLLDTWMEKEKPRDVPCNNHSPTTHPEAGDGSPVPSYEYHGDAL

[2] = target: T2, human TMEM16A (hTMEM16A, anoctamin 1) (Homo sapiens, UniProt Q5XXA6); assay: as above; conditions: HEK-293T
T2 construct: gene ANO1; untagged complete CDS
T2 sequence (Q5XXA6 1-986): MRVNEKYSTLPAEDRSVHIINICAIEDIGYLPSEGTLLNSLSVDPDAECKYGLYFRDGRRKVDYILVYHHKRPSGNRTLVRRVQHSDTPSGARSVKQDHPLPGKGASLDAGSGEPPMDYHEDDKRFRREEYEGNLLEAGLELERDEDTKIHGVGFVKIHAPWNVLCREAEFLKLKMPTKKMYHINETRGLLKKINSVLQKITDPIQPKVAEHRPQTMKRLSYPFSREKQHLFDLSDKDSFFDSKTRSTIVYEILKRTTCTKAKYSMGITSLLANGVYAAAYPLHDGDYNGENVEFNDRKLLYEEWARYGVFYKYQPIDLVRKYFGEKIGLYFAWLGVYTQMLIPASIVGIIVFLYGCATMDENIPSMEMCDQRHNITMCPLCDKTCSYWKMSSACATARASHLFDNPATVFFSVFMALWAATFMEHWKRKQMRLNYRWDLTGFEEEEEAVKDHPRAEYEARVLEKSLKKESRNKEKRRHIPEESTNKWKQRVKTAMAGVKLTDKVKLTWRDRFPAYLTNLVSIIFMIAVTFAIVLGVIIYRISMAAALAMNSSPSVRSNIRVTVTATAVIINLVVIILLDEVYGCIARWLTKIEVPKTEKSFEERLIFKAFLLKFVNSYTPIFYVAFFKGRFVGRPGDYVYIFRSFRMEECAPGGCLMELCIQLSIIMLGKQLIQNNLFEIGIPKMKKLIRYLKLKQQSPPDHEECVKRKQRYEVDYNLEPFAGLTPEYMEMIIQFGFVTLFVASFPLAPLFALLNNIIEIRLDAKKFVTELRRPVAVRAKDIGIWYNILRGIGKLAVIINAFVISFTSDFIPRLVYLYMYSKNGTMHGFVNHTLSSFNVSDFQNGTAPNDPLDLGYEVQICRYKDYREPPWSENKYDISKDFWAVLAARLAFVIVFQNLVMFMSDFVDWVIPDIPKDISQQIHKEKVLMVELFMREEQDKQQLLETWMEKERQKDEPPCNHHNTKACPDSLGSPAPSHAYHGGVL

[3] = target: T2, human TMEM16A (hTMEM16A, anoctamin 1); assay: whole-cell patch-clamp in transfected HEK293T cells, +[…] mV
[4] = target: T1, mouse TMEM16A (mTMEM16A, anoctamin 1); assay: as above

## C[C@]12CC[C@@H]3c4ccc(O)cc4CC[C@H]3[C@@H]1C[C@@H](O)[C@@H]2O [E3, estriol]
[1]
  inhibition at 100 µM: 56.8%
[2]
  inhibition at 100 µM: 43.5%

## O=C1c2ccc(O)cc2OCC1c1ccc(O)cc1 (stereo not drawn) [dihydrodaidzein]
[3]; read-out: IC50
  pIC50: 3.60
[4]; read-out: IC50
  pIC50: 3.75

## O=C1C[C@@H](c2ccc(O)cc2)Oc2cc(O)ccc21 [liquiritigenin]
[3]
  pIC50: 4.89
[4]
  pIC50: 4.67
